Assay results taken from PubChem BioAssay AID2060492 (Molecular Pharmacology Branch, DTP, NCI, 2025).

System: 695427-040-R-J1-PDC complex spheroids, viability percent T/C
Test: Anticancer human tumor 695427-040-R-J1-PDC patient-derived colon adenocarcinoma cell line growth inhibition [GQUAD]
Conditions: for IC50: curve of first compound; for viability, T/C: stronger effect = lower value
Text: DNA G-quadruplex Stabilizer Agents in Combinations in Complex Spheroids
A high-throughput screen of multi-cell type tumor spheroids was designed to identify active combinations of DNA G-quadruplex stabilizer agents and targeted small molecules. Complex spheroids include a stromal component modeled by human endothelial cells (HUVEC) and fibroblasts modeled by human mesenchymal stem cells (MSCs). The concentration ranges selected for each drug and investigational agent were based upon clinically achievable concentrations if the clinical Cmax of the agent was known.
Compounds. The drugs and investigational agents: pidnarulex (CX-5461; NSC782164), APTO-253 (NSC789042), BRACO-19 (NSC847499), peposertib (NSC802822), ceralasertib (NSC780249), elimusertib (NSC800525), camonsertib (NSC841442), AZD-1390 (NSC803789), olaparib (NSC753686), talazoparib (NSC767125), ART-558 (NSC835418), sotorasib (NSC818433), MRTX-1133 (NSC836407), SN-38 (NSC673596), topotecan (NSC609699), etoposide (NSC141540), doxorubicin (NSC123127), gemcitabine (NSC613327), 5-fluorouracil (NSC19893), paclitaxel (NSC125973), vemurafenib (NSC761431), panobinostat (NSC761190), R-306465 (JNJ-16241199; NSC773264), adavosertib (NSC754352), TP-3654 (NSC805149), carboplatin (NSC241240), KSQ-4279 (NSC840948), and staurosporine (NSC755774) were obtained from the National Cancer Institute (NCI) Developmental Therapeutics Program Chemical Repository (34). The FDA-approved anticancer drug set is available from the NCI Developmental Therapeutics Program. […] The stock solutions were prepared in dimethyl sulfoxide (DMSO, Sigma-Aldrich, St. Louis, MO, cat. D2650) at 800-fold the tested concentration and stored at -70 degrees C prior to their use. All drugs and investigational agents were tested over a range starting from a high concentration at or near the clinical Cmax and decreasing in half-log increments. If the clinical Cmax for an agent had not been determined, the highest concentration tested was 10 microM.
2.3 Cell Culture. All cells were maintained in an incubator at 37 degrees C and 5% CO2 with 95% humidity. The PDC lines were cultured according to standard operating procedures established by the NCI PDMR. All PDCs were thawed and cultured in Matrigel-coated flasks prepared with a working solution of 1X Ham's F-12 nutrient mix, without supplementation (Invitrogen, cat. 11765054), 100 U/mL penicillin-streptomycin (Invitrogen, cat. 15140122), and 2.5% Matrigel (Corning Inc., cat. 354248) for the first three passages. The 857933-349-R-J2-PDC line was cultured in 6C/Colon 1B media, which includes advanced DMEM/F-12 (Thermo Fisher Scientific, cat. 12634028), 10 mM HEPES (Thermo Fisher Scientific, cat. 15630080), 1X GlutaMAX supplement (Thermo Fisher Scientific, cat. 35050061), 0.1 mg/mL primocin (InvivoGen, cat. ant-pm-2), 10% defined fetal bovine serum, heat inactivated (HyClone Laboratories Inc., cat. SH30070.03HI), 50% L-WRN conditioned media (ATCC, cat. CRL-3276), 1.25 mM N-Acetyl-L-cysteine (Sigma-Aldrich, cat. A9165), 10 mM nicotinamide (Sigma-Aldrich, cat. N0636), 1X B-27 supplement (Thermo Fisher Scientific, cat. 17504044), 1X N-2 supplement (Thermo Fisher Scientific, cat. 17502048), 10 microM Y-27632 dihydrochloride (Tocris Bioscience, cat. 1254), and 50 ng/mL human EGF recombinant protein (Thermo Fisher Scientific, cat. PHG0311). The 485176-168-R4-J1-PDC line was cultured in Panc media, which includes all 6C/Colon 1B media components plus 100 ng/mL human FGF-10 (Thermo Fisher Scientific, cat. 100-26), 500 nM SB-431542 (Selleckchem, cat. S1067), and gastrin (Tocris, cat. 3006).
[…]
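Further: spheroids exposed to compounds for seven days before readout.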

CC(C)n1c(=O)n(C)c2cnc3cc(F)c(-c4ccc(OCCCN5CCCCC5)nc4)cc3c21 + CN(C)c1ccc(Nc2c3ccc(NC(=O)CCN4CCCC4)cc3nc3cc(NC(=O)CCN4CCCC4)ccc23)cc1
IC50 (second compound 0.0316 µM): > 10 µM | IC50 (second compound 0.1 µM): > 10 µM | IC50 (second compound 0.316 µM): > 10 µM | IC50 (second compound 1 µM): > 10 µM | IC50 (second compound 3.16 µM): > 10 µM | IC50 (second compound 10 µM): > 10 µM | viability, T/C (second compound 0.0316 µM, first compound 0.0316 µM): 113% | viability, T/C (second compound 0.0316 µM, first compound 0.1 µM): 96.1% | viability, T/C (second compound 0.0316 µM, first compound 0.316 µM): 111% | viability, T/C (second compound 0.0316 µM, first compound 1 µM): 101% | viability, T/C (second compound 0.0316 µM, first compound 3.16 µM): 104% | viability, T/C (second compound 0.0316 µM, first compound 10 µM): 66% | viability, T/C (second compound 0.1 µM, first compound 0.0316 µM): 107% | viability, T/C (second compound 0.1 µM, first compound 0.1 µM): 97.3% | viability, T/C (second compound 0.1 µM, first compound 0.316 µM): 106% | viability, T/C (second compound 0.1 µM, first compound 1 µM): 102% | viability, T/C (second compound 0.1 µM, first compound 3.16 µM): 110% | viability, T/C (second compound 0.1 µM, first compound 10 µM): 62.5% | viability, T/C (second compound 0.316 µM, first compound 0.0316 µM): 108% | viability, T/C (second compound 0.316 µM, first compound 0.1 µM): 98.5% | viability, T/C (second compound 0.316 µM, first compound 0.316 µM): 102% | viability, T/C (second compound 0.316 µM, first compound 1 µM): 106% | viability, T/C (second compound 0.316 µM, first compound 3.16 µM): 100% | viability, T/C (second compound 0.316 µM, first compound 10 µM): 67.4% | viability, T/C (second compound 1 µM, first compound 0.0316 µM): 101% | viability, T/C (second compound 1 µM, first compound 0.1 µM): 102% | viability, T/C (second compound 1 µM, first compound 0.316 µM): 110% | viability, T/C (second compound 1 µM, first compound 1 µM): 105% | viability, T/C (second compound 1 µM, first compound 3.16 µM): 100% | viability, T/C (second compound 1 µM, first compound 10 µM): 62.9% | viability, T/C (second compound 3.16 µM, first compound 0.0316 µM): 86.4% | viability, T/C (second compound 3.16 µM, first compound 0.1 µM): 101% | viability, T/C (second compound 3.16 µM, first compound 0.316 µM): 94.4% | viability, T/C (second compound 3.16 µM, first compound 1 µM): 98.8% | viability, T/C (second compound 3.16 µM, first compound 3.16 µM): 95.5% | viability, T/C (second compound 3.16 µM, first compound 10 µM): 68.1% | viability, T/C (second compound 10 µM, first compound 0.0316 µM): 89.4% | viability, T/C (second compound 10 µM, first compound 0.1 µM): 92.2% | viability, T/C (second compound 10 µM, first compound 0.316 µM): 93.3% | viability, T/C (second compound 10 µM, first compound 1 µM): 89.3% | viability, T/C (second compound 10 µM, first compound 3.16 µM): 93.7% | viability, T/C (second compound 10 µM, first compound 10 µM): 59.4%
